# Reference: the OligoGym collection
# Oligonucleotides are given in HELM: sugar(base)linkage, 5' to 3'; d 2'-deoxyribose, r ribose, m 2'-O-methylribose, p phosphate. ss, as = sense and antisense strand
# Target: SOST
# Assay: reporter assay of Huesken 2005
# Details: siRNA
# Also: test concentration or dose not given here.
row,Substance,normalised inhibition (eCFP-eYFP dual reporter) [%]
1,RNA1{r(G)p.r(A)p.r(A)p.r(C)p.r(G)p.r(G)p.r(A)p.r(G)p.r(G)p.r(G)p.r(C)p.r(G)p.r(G)p.r(C)p.r(C)p.r(U)p.r(C)p.r(C)p.r(C)p.d(T)p.d(T)}|RNA2{r(G)p.r(G)p.r(G)p.r(A)p.r(G)p.r(G)p.r(C)p.r(C)p.r(G)p.r(C)p.r(C)p.r(C)p.r(U)p.r(C)p.r(C)p.r(G)p.r(U)p.r(U)p.r(C)p.d(T)p.d(C)}$$$RNA1{StrandType:ss}|RNA2{StrandType:as}$,52.6
2,RNA1{r(G)p.r(A)p.r(C)p.r(G)p.r(U)p.r(G)p.r(U)p.r(C)p.r(C)p.r(G)p.r(A)p.r(G)p.r(U)p.r(A)p.r(C)p.r(A)p.r(G)p.r(C)p.r(U)p.d(T)p.d(T)}|RNA2{r(A)p.r(G)p.r(C)p.r(U)p.r(G)p.r(U)p.r(A)p.r(C)p.r(U)p.r(C)p.r(G)p.r(G)p.r(A)p.r(C)p.r(A)p.r(C)p.r(G)p.r(U)p.r(C)p.d(T)p.d(T)}$$$RNA1{StrandType:ss}|RNA2{StrandType:as}$,75.8
3,RNA1{r(G)p.r(A)p.r(G)p.r(G)p.r(G)p.r(C)p.r(C)p.r(A)p.r(G)p.r(G)p.r(G)p.r(G)p.r(U)p.r(G)p.r(G)p.r(C)p.r(A)p.r(G)p.r(G)p.d(T)p.d(T)}|RNA2{r(C)p.r(C)p.r(U)p.r(G)p.r(C)p.r(C)p.r(A)p.r(C)p.r(C)p.r(C)p.r(C)p.r(U)p.r(G)p.r(G)p.r(C)p.r(C)p.r(C)p.r(U)p.r(C)p.d(C)p.d(A)}$$$RNA1{StrandType:ss}|RNA2{StrandType:as}$,71.1
4,RNA1{r(G)p.r(C)p.r(C)p.r(A)p.r(G)p.r(G)p.r(G)p.r(G)p.r(U)p.r(G)p.r(G)p.r(C)p.r(A)p.r(G)p.r(G)p.r(C)p.r(G)p.r(U)p.r(U)p.d(T)p.d(T)}|RNA2{r(A)p.r(A)p.r(C)p.r(G)p.r(C)p.r(C)p.r(U)p.r(G)p.r(C)p.r(C)p.r(A)p.r(C)p.r(C)p.r(C)p.r(C)p.r(U)p.r(G)p.r(G)p.r(C)p.d(C)p.d(C)}$$$RNA1{StrandType:ss}|RNA2{StrandType:as}$,77.7
5,RNA1{r(G)p.r(C)p.r(C)p.r(C)p.r(A)p.r(A)p.r(C)p.r(G)p.r(C)p.r(C)p.r(A)p.r(U)p.r(C)p.r(G)p.r(G)p.r(C)p.r(C)p.r(G)p.r(C)p.d(T)p.d(T)}|RNA2{r(G)p.r(C)p.r(G)p.r(G)p.r(C)p.r(C)p.r(G)p.r(A)p.r(U)p.r(G)p.r(G)p.r(C)p.r(G)p.r(U)p.r(U)p.r(G)p.r(G)p.r(G)p.r(C)p.d(A)p.d(G)}$$$RNA1{StrandType:ss}|RNA2{StrandType:as}$,64.3
6,RNA1{r(G)p.r(C)p.r(C)p.r(G)p.r(C)p.r(G)p.r(C)p.r(G)p.r(C)p.r(G)p.r(C)p.r(G)p.r(C)p.r(A)p.r(A)p.r(G)p.r(G)p.r(U)p.r(G)p.d(T)p.d(T)}|RNA2{r(C)p.r(A)p.r(C)p.r(C)p.r(U)p.r(U)p.r(G)p.r(C)p.r(G)p.r(C)p.r(G)p.r(C)p.r(G)p.r(C)p.r(G)p.r(C)p.r(G)p.r(G)p.r(C)p.d(G)p.d(C)}$$$RNA1{StrandType:ss}|RNA2{StrandType:as}$,57.1
7,RNA1{r(G)p.r(C)p.r(G)p.r(A)p.r(C)p.r(C)p.r(U)p.r(A)p.r(G)p.r(U)p.r(G)p.r(G)p.r(G)p.r(C)p.r(C)p.r(C)p.r(G)p.r(A)p.r(C)p.d(T)p.d(T)}|RNA2{r(G)p.r(U)p.r(C)p.r(G)p.r(G)p.r(G)p.r(C)p.r(C)p.r(C)p.r(A)p.r(C)p.r(U)p.r(A)p.r(G)p.r(G)p.r(U)p.r(C)p.r(G)p.r(C)p.d(C)p.d(A)}$$$RNA1{StrandType:ss}|RNA2{StrandType:as}$,66
8,RNA1{r(G)p.r(C)p.r(G)p.r(C)p.r(G)p.r(C)p.r(A)p.r(A)p.r(G)p.r(G)p.r(U)p.r(G)p.r(C)p.r(G)p.r(C)p.r(C)p.r(U)p.r(G)p.r(G)p.d(T)p.d(T)}|RNA2{r(C)p.r(C)p.r(A)p.r(G)p.r(G)p.r(C)p.r(G)p.r(C)p.r(A)p.r(C)p.r(C)p.r(U)p.r(U)p.r(G)p.r(C)p.r(G)p.r(C)p.r(G)p.r(C)p.d(G)p.d(C)}$$$RNA1{StrandType:ss}|RNA2{StrandType:as}$,41.3
9,RNA1{r(G)p.r(C)p.r(G)p.r(U)p.r(U)p.r(C)p.r(A)p.r(A)p.r(G)p.r(A)p.r(A)p.r(U)p.r(G)p.r(A)p.r(U)p.r(G)p.r(C)p.r(C)p.r(A)p.d(T)p.d(T)}|RNA2{r(U)p.r(G)p.r(G)p.r(C)p.r(A)p.r(U)p.r(C)p.r(A)p.r(U)p.r(U)p.r(C)p.r(U)p.r(U)p.r(G)p.r(A)p.r(A)p.r(C)p.r(G)p.r(C)p.d(C)p.d(T)}$$$RNA1{StrandType:ss}|RNA2{StrandType:as}$,93.4
10,RNA1{r(G)p.r(C)p.r(U)p.r(A)p.r(C)p.r(C)p.r(G)p.r(C)p.r(G)p.r(C)p.r(G)p.r(C)p.r(A)p.r(G)p.r(C)p.r(G)p.r(C)p.r(G)p.r(U)p.d(T)p.d(T)}|RNA2{r(A)p.r(C)p.r(G)p.r(C)p.r(G)p.r(C)p.r(U)p.r(G)p.r(C)p.r(G)p.r(C)p.r(G)p.r(C)p.r(G)p.r(G)p.r(U)p.r(A)p.r(G)p.r(C)p.d(G)p.d(G)}$$$RNA1{StrandType:ss}|RNA2{StrandType:as}$,51.8
11,RNA1{r(G)p.r(C)p.r(U)p.r(C)p.r(C)p.r(G)p.r(G)p.r(C)p.r(C)p.r(A)p.r(G)p.r(U)p.r(G)p.r(C)p.r(G)p.r(G)p.r(C)p.r(C)p.r(C)p.d(T)p.d(T)}|RNA2{r(G)p.r(G)p.r(G)p.r(C)p.r(C)p.r(G)p.r(C)p.r(A)p.r(C)p.r(U)p.r(G)p.r(G)p.r(C)p.r(C)p.r(G)p.r(G)p.r(A)p.r(G)p.r(C)p.d(A)p.d(C)}$$$RNA1{StrandType:ss}|RNA2{StrandType:as}$,53
12,RNA1{r(G)p.r(C)p.r(U)p.r(G)p.r(C)p.r(A)p.r(C)p.r(U)p.r(U)p.r(C)p.r(A)p.r(C)p.r(C)p.r(C)p.r(G)p.r(C)p.r(U)p.r(A)p.r(C)p.d(T)p.d(T)}|RNA2{r(G)p.r(U)p.r(A)p.r(G)p.r(C)p.r(G)p.r(G)p.r(G)p.r(U)p.r(G)p.r(A)p.r(A)p.r(G)p.r(U)p.r(G)p.r(C)p.r(A)p.r(G)p.r(C)p.d(T)p.d(C)}$$$RNA1{StrandType:ss}|RNA2{StrandType:as}$,75.4
13,RNA1{r(G)p.r(G)p.r(A)p.r(C)p.r(C)p.r(G)p.r(A)p.r(G)p.r(G)p.r(C)p.r(C)p.r(G)p.r(C)p.r(U)p.r(C)p.r(G)p.r(G)p.r(C)p.r(C)p.d(T)p.d(T)}|RNA2{r(G)p.r(G)p.r(C)p.r(C)p.r(G)p.r(A)p.r(G)p.r(C)p.r(G)p.r(G)p.r(C)p.r(C)p.r(U)p.r(C)p.r(G)p.r(G)p.r(U)p.r(C)p.r(C)p.d(C)p.d(G)}$$$RNA1{StrandType:ss}|RNA2{StrandType:as}$,50.7
14,RNA1{r(G)p.r(G)p.r(A)p.r(C)p.r(U)p.r(U)p.r(C)p.r(G)p.r(G)p.r(G)p.r(A)p.r(C)p.r(C)p.r(G)p.r(A)p.r(G)p.r(G)p.r(C)p.r(C)p.d(T)p.d(T)}|RNA2{r(G)p.r(G)p.r(C)p.r(C)p.r(U)p.r(C)p.r(G)p.r(G)p.r(U)p.r(C)p.r(C)p.r(C)p.r(G)p.r(A)p.r(A)p.r(G)p.r(U)p.r(C)p.r(C)p.d(T)p.d(T)}$$$RNA1{StrandType:ss}|RNA2{StrandType:as}$,53.8
15,RNA1{r(G)p.r(G)p.r(A)p.r(G)p.r(C)p.r(U)p.r(C)p.r(A)p.r(A)p.r(G)p.r(G)p.r(A)p.r(C)p.r(U)p.r(U)p.r(C)p.r(G)p.r(G)p.r(G)p.d(T)p.d(T)}|RNA2{r(C)p.r(C)p.r(C)p.r(G)p.r(A)p.r(A)p.r(G)p.r(U)p.r(C)p.r(C)p.r(U)p.r(U)p.r(G)p.r(A)p.r(G)p.r(C)p.r(U)p.r(C)p.r(C)p.d(G)p.d(A)}$$$RNA1{StrandType:ss}|RNA2{StrandType:as}$,75
16,RNA1{r(G)p.r(G)p.r(G)p.r(C)p.r(G)p.r(G)p.r(C)p.r(C)p.r(U)p.r(C)p.r(C)p.r(C)p.r(C)p.r(A)p.r(C)p.r(C)p.r(A)p.r(C)p.r(C)p.d(T)p.d(T)}|RNA2{r(G)p.r(G)p.r(U)p.r(G)p.r(G)p.r(U)p.r(G)p.r(G)p.r(G)p.r(G)p.r(A)p.r(G)p.r(G)p.r(C)p.r(C)p.r(G)p.r(C)p.r(C)p.r(C)p.d(T)p.d(C)}$$$RNA1{StrandType:ss}|RNA2{StrandType:as}$,64.3
17,RNA1{r(G)p.r(G)p.r(G)p.r(G)p.r(U)p.r(G)p.r(G)p.r(C)p.r(A)p.r(G)p.r(G)p.r(C)p.r(G)p.r(U)p.r(U)p.r(C)p.r(A)p.r(A)p.r(G)p.d(T)p.d(T)}|RNA2{r(C)p.r(U)p.r(U)p.r(G)p.r(A)p.r(A)p.r(C)p.r(G)p.r(C)p.r(C)p.r(U)p.r(G)p.r(C)p.r(C)p.r(A)p.r(C)p.r(C)p.r(C)p.r(C)p.d(T)p.d(G)}$$$RNA1{StrandType:ss}|RNA2{StrandType:as}$,48.7
18,RNA1{r(G)p.r(G)p.r(U)p.r(G)p.r(A)p.r(G)p.r(G)p.r(C)p.r(G)p.r(C)p.r(C)p.r(G)p.r(C)p.r(G)p.r(C)p.r(G)p.r(C)p.r(G)p.r(C)p.d(T)p.d(T)}|RNA2{r(G)p.r(C)p.r(G)p.r(C)p.r(G)p.r(C)p.r(G)p.r(C)p.r(G)p.r(G)p.r(C)p.r(G)p.r(C)p.r(C)p.r(U)p.r(C)p.r(A)p.r(C)p.r(C)p.d(A)p.d(C)}$$$RNA1{StrandType:ss}|RNA2{StrandType:as}$,26
19,RNA1{r(G)p.r(U)p.r(A)p.r(G)p.r(U)p.r(G)p.r(G)p.r(A)p.r(G)p.r(G)p.r(G)p.r(C)p.r(C)p.r(A)p.r(G)p.r(G)p.r(G)p.r(G)p.r(U)p.d(T)p.d(T)}|RNA2{r(A)p.r(C)p.r(C)p.r(C)p.r(C)p.r(U)p.r(G)p.r(G)p.r(C)p.r(C)p.r(C)p.r(U)p.r(C)p.r(C)p.r(A)p.r(C)p.r(U)p.r(A)p.r(C)p.d(A)p.d(C)}$$$RNA1{StrandType:ss}|RNA2{StrandType:as}$,63.5
20,RNA1{r(G)p.r(U)p.r(G)p.r(C)p.r(C)p.r(G)p.r(C)p.r(A)p.r(G)p.r(C)p.r(G)p.r(C)p.r(C)p.r(A)p.r(A)p.r(G)p.r(C)p.r(C)p.r(G)p.d(T)p.d(T)}|RNA2{r(C)p.r(G)p.r(G)p.r(C)p.r(U)p.r(U)p.r(G)p.r(G)p.r(C)p.r(G)p.r(C)p.r(U)p.r(G)p.r(C)p.r(G)p.r(G)p.r(C)p.r(A)p.r(C)p.d(G)p.d(G)}$$$RNA1{StrandType:ss}|RNA2{StrandType:as}$,49.6
